Laboratory results reported in publication PMC6407579, “New flavonoid – N,N-dibenzyl(N-methyl)amine hybrids: Multi-target-directed agents for Alzheimer´s disease endowed with neurogenic properties” (Journal of Enzyme Inhibition and Medicinal Chemistry, 2019).
Where “and” joins values, the source holds several entries; their conditions need not be identical. Equal values may be shown once. Read-outs that look alike come from different tables or passages of the source.

Experiments:
recombinant hMAO-A = target: T1, recombinant hMAO-A (Homo sapiens, UniProt P21397); assay: biochemical; type: biochemical; conditions: mean ± SEM (n = 3); 100 µM highest concentration tested
T1 sequence (P21397 1-527): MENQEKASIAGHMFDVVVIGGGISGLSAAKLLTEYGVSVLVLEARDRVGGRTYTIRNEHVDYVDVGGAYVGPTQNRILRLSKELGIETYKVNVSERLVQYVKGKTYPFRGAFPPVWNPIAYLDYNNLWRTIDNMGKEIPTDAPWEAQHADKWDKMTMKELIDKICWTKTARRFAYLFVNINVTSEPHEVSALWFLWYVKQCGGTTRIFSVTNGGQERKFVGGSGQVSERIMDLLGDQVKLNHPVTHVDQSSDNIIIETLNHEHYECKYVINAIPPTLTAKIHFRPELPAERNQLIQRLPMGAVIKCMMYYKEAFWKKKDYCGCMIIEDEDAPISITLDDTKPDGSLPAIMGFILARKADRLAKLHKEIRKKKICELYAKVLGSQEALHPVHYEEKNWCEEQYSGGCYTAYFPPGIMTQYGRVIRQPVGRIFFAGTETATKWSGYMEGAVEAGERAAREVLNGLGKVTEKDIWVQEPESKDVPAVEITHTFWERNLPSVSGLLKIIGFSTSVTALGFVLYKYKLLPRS

recombinant hMAO-B = target: T2, recombinant hMAO-B (Homo sapiens, UniProt P27338); assay: biochemical; type: biochemical; conditions: for IC50: mean ± SEM (n = 3), 100 µM highest concentration tested
T2 sequence (P27338 1-520): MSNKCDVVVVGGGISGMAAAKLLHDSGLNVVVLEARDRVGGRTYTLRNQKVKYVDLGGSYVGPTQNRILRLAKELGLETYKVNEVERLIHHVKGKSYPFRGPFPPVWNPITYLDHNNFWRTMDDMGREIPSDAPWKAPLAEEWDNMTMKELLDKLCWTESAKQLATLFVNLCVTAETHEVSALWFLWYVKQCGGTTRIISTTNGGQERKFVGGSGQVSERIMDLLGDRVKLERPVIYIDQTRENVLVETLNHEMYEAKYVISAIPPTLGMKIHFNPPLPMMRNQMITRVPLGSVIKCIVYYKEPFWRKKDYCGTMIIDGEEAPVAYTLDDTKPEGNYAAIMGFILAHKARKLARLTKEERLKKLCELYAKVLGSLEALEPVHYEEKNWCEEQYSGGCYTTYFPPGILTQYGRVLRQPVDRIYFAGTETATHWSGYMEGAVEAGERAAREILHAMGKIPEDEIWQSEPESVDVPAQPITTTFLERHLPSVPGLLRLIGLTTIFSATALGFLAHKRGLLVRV

hLOX-5 = target: T3, hLOX-5 (Homo sapiens, UniProt P09917); assay: Inhibition of human lipoxygenase-5 (fluorescence-based, Pufahl); type: biochemical; conditions: three independent experiments
T3 sequence (P09917 1-674): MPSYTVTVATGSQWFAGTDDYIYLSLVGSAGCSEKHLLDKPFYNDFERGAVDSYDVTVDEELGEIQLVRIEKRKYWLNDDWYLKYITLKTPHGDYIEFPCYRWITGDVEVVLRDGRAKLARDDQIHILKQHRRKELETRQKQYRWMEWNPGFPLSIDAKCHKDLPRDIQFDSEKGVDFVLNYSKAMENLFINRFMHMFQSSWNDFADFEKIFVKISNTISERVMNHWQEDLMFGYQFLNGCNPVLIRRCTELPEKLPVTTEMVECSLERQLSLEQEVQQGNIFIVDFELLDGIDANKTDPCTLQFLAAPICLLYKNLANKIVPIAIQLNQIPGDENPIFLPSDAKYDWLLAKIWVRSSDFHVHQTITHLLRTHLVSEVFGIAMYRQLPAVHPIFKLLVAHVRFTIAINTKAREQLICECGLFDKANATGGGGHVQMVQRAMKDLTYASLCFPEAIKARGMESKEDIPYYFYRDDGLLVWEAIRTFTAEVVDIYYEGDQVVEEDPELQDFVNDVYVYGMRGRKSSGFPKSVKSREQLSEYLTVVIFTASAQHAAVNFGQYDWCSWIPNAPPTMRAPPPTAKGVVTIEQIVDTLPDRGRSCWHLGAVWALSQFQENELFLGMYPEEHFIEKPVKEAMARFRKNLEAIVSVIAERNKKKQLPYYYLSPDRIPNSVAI
Experimental: The fluorescence-based enzyme method developed by Pufahl et al. was followed, in 96-well microtiter plates. The assay solution consists of Tris buffer (50 mM, pH 7.5), ethylenediaminetetraacetic acid (EDTA, 2 mM), CaCl2 (2 mM), arachidonic acid (AA, 3 μM), ATP (10 μM), 2',7'-dichlorodihydrofluorescein diacetate (H2DCFDA, 10 μM), hLOX-5 (100 mU/well), bovine glutathione peroxidase (GPx, 25 mU/well) and reduced glutathione (GSH, 1 mM). Compounds to be tested were added to the test solution prior to AA and ATP, and pre-incubated for a period of 10 min at room temperature. Then, the AA and ATP substrates were added; the enzymatic reaction allowed to progress for 20 min and ended by the addition of 40 μL of acetonitrile.
A selection of new hybrids covering different structural motifs was assayed as inhibitors of hLOX-5, followed the method described by Pufahl et al.[55].

[1] = In vitro blood-brain barrier permeation assay (PAMPA-BBB); type: in vitro ADME; conditions: pig, pH 7.4, porcine brain lipid, PBS:ethanol (70:30), 25 °C, read-out: PAMPA-BBB permeability in the CNS (Pe)
Experimental: Prediction of the brain penetration was evaluated using a parallel artificial membrane permeation assay (PAMPA-BBB), in a similar manner as previously described[36]^,[46]^,[51–53]. Pipetting was performed with a semi-automatic pipettor (CyBi®-SELMA) and UV reading with a microplate spectrophotometer (Multiskan Spectrum, Thermo Electron Co.). Commercial drugs, phosphate buffered saline solution at pH 7.4 (PBS), and dodecane were purchased from Sigma, Aldrich, Acros, and Fluka. Millex filter units (PVDF membrane, diameter 25 mm, pore size 0.45 μm) were acquired from Millipore. The porcine brain lipid (PBL) was obtained from Avanti Polar Lipids. The donor microplate was a 96-well filter plate (PVDF membrane, pore size 0.45 μm) and the acceptor microplate was an indented 96-well plate, both from Millipore. The acceptor 96-well microplate was filled with 200 μL of PBS: ethanol (70:30) and the filter surface of the donor microplate was impregnated with 5 μL of porcine brain lipid (PBL) in dodecane (20 mg mL^−1). Compounds were dissolved in PBS: ethanol (70:30) at 100 μg mL^−1, filtered through a Millex filter, and then added to the donor wells (200 μL). The donor filter plate was carefully put on the acceptor plate to form a sandwich, which was left undisturbed for 120 min at 25 °C. After incubation, the donor plate is carefully removed and the concentration of compounds in the acceptor wells was determined by UV-Vis spectroscopy. Every sample is analysed at five wavelengths, in four wells and at least in three independent runs, and the results are given as the mean ± standard deviation. In each experiment, 11 quality control standards of known BBB permeability were included to validate and normalise the analysis set.
To check if new compounds could be able to reach their CNS-targets, we used the in vitro parallel artificial membrane permeability assay for the blood-brain barrier (PAMPA-BBB) described by Di et al.[87], and partially modified by us for testing molecules with limited water-solubility[36]^,[46]^,[51–53]. The passive CNS-permeation of new compounds 1–13 through a lipid extract of porcine brain was measured at room temperature. In each experiment, 11 commercial drugs of known brain permeability were also tested and their permeability values normalised to the reported PAMPA-BBB data. […].

[2] = target: T4, human recombinant AChE (hAChE) (Homo sapiens, UniProt P22303); assay: biochemical
T4 construct: purchased Sigma Chemical Co
Experimental: The Ellman method was followed, using human recombinant AChE and BuChE from human serum. The assay solution consisted of 0.1 M phosphate buffer pH 8.0, 400 μM 5,5´-dithiobis(2-nitrobenzoic acid) (DTNB, Ellman’s reagent), 0.05 U/mL hAChE (Sigma Chemical Co.) or 0.024 U/mL hBuChE (Sigma Chemical Co.), and 800 μM acetylthiocholine iodide, or 500 μM butyrylthiocholine as the substrate of the enzymatic reaction, respectively. The compounds tested were added to the assay solution and preincubated with the enzyme for 5 min at 30 °C. After that period, the substrate was added.

[3] = Oxygen radical absorbance capacity assay (ORAC); conditions: trolox taken as 1.0
[4] = mean ± SEM (n = 3), read-out: hAChE IC50

T4 sequence (P22303 32-614): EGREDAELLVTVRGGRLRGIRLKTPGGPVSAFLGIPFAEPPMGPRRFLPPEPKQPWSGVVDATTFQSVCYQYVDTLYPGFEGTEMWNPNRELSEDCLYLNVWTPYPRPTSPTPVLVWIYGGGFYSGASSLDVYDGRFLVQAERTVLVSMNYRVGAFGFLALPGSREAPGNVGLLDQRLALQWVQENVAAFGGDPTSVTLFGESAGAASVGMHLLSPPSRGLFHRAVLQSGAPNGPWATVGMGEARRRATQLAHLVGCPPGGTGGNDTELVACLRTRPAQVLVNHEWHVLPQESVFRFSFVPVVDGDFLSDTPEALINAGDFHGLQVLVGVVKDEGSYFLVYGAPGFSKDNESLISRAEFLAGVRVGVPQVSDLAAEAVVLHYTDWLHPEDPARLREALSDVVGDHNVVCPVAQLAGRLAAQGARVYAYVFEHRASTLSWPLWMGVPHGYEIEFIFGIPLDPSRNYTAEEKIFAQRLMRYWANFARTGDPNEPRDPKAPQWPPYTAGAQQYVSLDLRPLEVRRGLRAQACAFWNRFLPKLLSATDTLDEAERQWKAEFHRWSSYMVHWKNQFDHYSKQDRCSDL

Row | SMILES | IC50 (recombinant hMAO-A) | IC50 (recombinant hMAO-B) | IC50 (hLOX-5; hLOX-5 IC50, mean ± SEM) | Papp at 120 min, 100 μg mL^−1 [1] | IC50 ([2]; hAChE IC50, mean ± SEM (n = 3)) | hLOX-5 IC50 (hLOX-5; mean ± SEM) | IC50 (hLOX-5; mean ± SEM, read-out: hLOX-5 IC50) | IC50 [2, 4] | more active in hMAO-B than in hMAO-A (recombinant hMAO-B) | ORAC, trolox equivalents [3]
1 | COc1ccc2c(=O)cc(C(=O)Nc3ccc(CN(C)Cc4ccccc4)cc3)[nH]c2c1 [Compound 10, N-(4-((Benzyl(methyl)amino)methyl)phenyl)-7-methoxy-4-oxo-1,4-dihydroquinoline-2-carboxamide] | > 100 µM | > 100 µM | 82.8 ± 4.1 µM | 21.7 ± 1.9 ×10⁻⁶ cm/s | 2.3 ± 0.2 µM |  |  |  |  | 
2 | COc1ccc2[nH]c(C(=O)Nc3ccc(CN(C)Cc4ccccc4)cc3)cc(=O)c2c1 [Compound 8, N-(4-((Benzyl(methyl)amino)methyl)phenyl)-6-methoxy-4-oxo-1,4-dihydroquinoline-2-carboxamide] | > 100 µM | > 100 µM |  | 24.8 ± 2 ×10⁻⁶ cm/s |  | inactive | > 100 µM | 2.3 ± 0.1 µM |  | 
3 | COc1cccc2[nH]c(C(=O)Nc3ccc(CN(C)Cc4ccccc4)cc3)cc(=O)c12 [Compound 7, N-(4-((Benzyl(methyl)amino)methyl)phenyl)-5-methoxy-4-oxo-1,4-dihydroquinoline-2-carboxamide] | > 100 µM | 15.2 ± 1 µM |  | 23 ± 2.1 ×10⁻⁶ cm/s |  |  |  | 4 ± 0.4 µM | 6.6 fold | 
4 | COc1cc(OC)c2c(=O)cc(C(=O)Nc3ccc(CN(C)Cc4ccccc4)cc3)oc2c1 [Compound 3, N-(4-((Benzyl(methyl)amino)methyl)phenyl)-5,7-dimethoxy-4-oxo-4H-chromene-2-carboxamide] | > 100 µM | > 100 µM |  | 19.4 ± 1.7 ×10⁻⁶ cm/s | 3.2 ± 0.4 µM |  |  |  |  | 
5 | COc1cc2[nH]c(C(=O)Nc3cccc(CN(C)Cc4ccccc4)c3)cc(=O)c2cc1OC [Compound 13, N-(3-((Benzyl(methyl)amino)methyl)phenyl)-6,7-dimethoxy-4-oxo-1,4-dihydroquinoline-2-carboxamide] | > 100 µM | > 100 µM | 36.6 ± 3.1 µM | 15.1 ± 1.2 ×10⁻⁶ cm/s | > 10 µM |  |  |  |  | 
6 | CN(Cc1ccccc1)Cc1ccc(NC(=O)c2cc(=O)c3cc(O)c(O)cc3[nH]2)cc1 [Compound 12, N-(4-((benzyl(methyl)amino)methyl)phenyl)-6,7-dihydroxy-4-oxo-1,4-dihydroquinoline-2-carboxamide] | > 100 µM | > 100 µM |  | 8.8 ± 0.7 ×10⁻⁶ cm/s | > 10 µM |  |  |  |  | 0.5 mmol of trolox/mmol of tested compound and 0.5 ± 0.1 mmol of trolox/mmol of tested compound
7 | CN(Cc1ccccc1)Cc1ccc(NC(=O)c2cc(=O)c3cc(O)ccc3[nH]2)cc1 [Compound 9, N-(4-((Benzyl(methyl)amino)methyl)phenyl)-6-hydroxy-4-oxo-1,4-dihydroquinoline-2-carboxamide] | > 100 µM | > 100 µM |  | 8.4 ± 0.7 ×10⁻⁶ cm/s | 3.1 ± 0.3 µM |  |  |  |  | 1.2 mmol of trolox/mmol of tested compound and 1.2 ± 0.1 mmol of trolox/mmol of tested compound
8 | COc1cc2[nH]c(C(=O)Nc3ccc(CN(C)Cc4ccccc4)cc3)cc(=O)c2cc1OC [Compound 11, N-(4-((benzyl(methyl)amino)methyl)phenyl)-6,7-dimethoxy-4-oxo-1,4-dihydroquinoline-2-carboxamide] | > 100 µM | > 100 µM |  | 19.1 ± 1.5 ×10⁻⁶ cm/s | 4.5 ± 0.3 µM |  |  |  |  | 
9 | Cc1c(C)c2c(c(C)c1O)CCC(C)(C(=O)O)O2 (racemic) [Trolox, (±)-6-hydroxy-2,5,7,8-tetramethylchromane-2-carboxylic acid, reference compound] |  |  |  |  |  |  |  |  |  | 1.0 mmol of trolox/mmol of tested compound
